These compounds were tested on IL-2 (assay: PHA-IL2 (cell activation and cytokine analysis)). Conditions: 50% inhibition concentration class.
Type: cell-based
How it was run: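 Cells were seeded in 96-well plates at 1.0-2.0×10^6 cells/ml in 150 ul of RPMI containing 0.5% fetal calf serum. Test compounds, at up to ≤20 uM, were preincubated with the cells for 30 minutes, then phytohemagglutinin (PHA) was added and cultures were stimulated for 24-48 hours at 37 degrees C./5% CO2. Supernatant IL-2 was then quantified by standard ELISA.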

Compound | IC50 [nM]
COc1cccc(CCC2CCN(C(=O)COc3ccc(C(F)(F)F)cc3-c3ccc(F)cc3O)CC2)c1 [Compound 353] | < 1000
N#Cc1ccc(OCC(=O)N2CCC(CCc3cccc(OCCN4CCOCC4)c3)CC2)c(-c2ccc(F)cc2O)c1 [Compound 354] | 1000 to 10000
O=C(COc1ccccc1-c1ccc(F)cc1O)N1CCC(CCc2cccc(OCCN3CCOCC3)c2)CC1 [Compound 355] | 1000 to 10000
O=C(COc1ccc(C(F)(F)F)cc1-c1ccc(F)cc1O)N1CCC(CCc2cccc(OCCN3CCOCC3)c2)CC1 [Compound 356] | 1000 to 10000
N#Cc1ccc(OCC(=O)N2CCC(CCc3ccc(OCCN4CCOCC4)cc3)CC2)c(-c2ccc(F)cc2O)c1 [Compound 357] | < 1000
O=C(COc1cccnc1-c1ccc(F)cc1O)N1CCC(CCc2ccc(OCCN3CCOCC3)cc2)CC1 [Compound 358] | 1000 to 10000
O=C(COc1ccccc1-c1ccc(F)cc1O)N1CCC(CCc2cccc(OCCN3CCCC3)c2)CC1 [Compound 359] | 1000 to 10000
O=C(COc1cccnc1-c1ccc(F)cc1O)N1CCC(CCc2cccc(OCCN3CCCCC3)c2)CC1 [Compound 360] | 1000 to 10000
COc1cccc(CCC2CCN(C(=O)COc3cccnc3-c3ccc(C#N)cc3)CC2)c1 [Compound 361] | 1000 to 10000
COc1cccc(CCC2CCN(C(=O)COc3cccnc3-c3ccc4[nH]ncc4c3)CC2)c1 [Compound 362] | 1000 to 10000
COc1cccc(CCC2CCN(C(=O)COc3cccnc3-c3ccc(C(F)(F)F)cc3O)CC2)c1 [Compound 363] | 1000 to 10000
COc1cccc(CCC2CCN(C(=O)COc3ccccc3-c3ccc(C(F)(F)F)cc3O)CC2)c1 [Compound 364] | 1000 to 10000
O=C(COc1ccccc1-c1ccc(C(F)(F)F)cc1O)N1CCC(CCc2ccc3c(c2)OCO3)CC1 [Compound 365] | 1000 to 10000
N#Cc1ccc(-c2cc(C(=O)NCc3ccccc3)ccc2OCC(=O)N2CCC(CCc3ccccc3)CC2)cc1 [Compound 366] | < 1000
CN1CC(NC(=O)c2ccc(OCC(=O)N3CCC(CCc4ccccc4)CC3)c(-c3ccc(C#N)cc3)c2)C1 [Compound 367] | 1000 to 10000
N#Cc1ccc(-c2cc(C(=O)NC3CCOCC3)ccc2OCC(=O)N2CCC(CCc3ccccc3)CC2)cc1 [Compound 368] | 1000 to 10000
N#Cc1ccc(-c2cc(C(=O)Nc3ccccc3)ccc2OCC(=O)N2CCC(CCc3ccccc3)CC2)cc1 [Compound 369] | 1000 to 10000
O=C(COc1ccccc1-c1ccc2[nH]cnc2c1)N1CCC(CCc2ccccc2)CC1 [Compound 370] | 1000 to 10000
COc1cccc(CCC2CCN(C(=O)COc3ccccc3-c3ccc4[nH]cnc4c3)CC2)c1 [Compound 371] | < 1000
N#Cc1ccc(OCC(=O)N2CCC(CCc3ccccc3)CC2)c(-c2ccc3[nH]cnc3c2)c1 [Compound 372] | 1000 to 10000
COc1cccc(CCC2CCN(C(=O)COc3cccnc3-c3ccc4c(cnn4C)c3)CC2)c1 [Compound 373] | 1000 to 10000
Cn1ncc2cc(-c3ncccc3OCC(=O)N3CCC(CCc4cccc(OCCN5CCOCC5)c4)CC3)ccc21 [Compound 374] | 10000 to 50000
Cn1ncc2cc(-c3ncccc3OCC(=O)N3CCC(CCc4ccc5c(c4)OCO5)CC3)ccc21 [Compound 375] | 1000 to 10000
O=C(COc1cccnc1-c1ccc2[nH]ccc2c1)N1CCC(CCc2ccccc2)CC1 [Compound 376] | 1000 to 10000
COc1cccc(CCC2CCN(C(=O)COc3cccnc3-c3ccc4[nH]ccc4c3)CC2)c1 [Compound 377] | 1000 to 10000

Compound | IC50 [nM]
COc1cccc(CCC2CCN(C(=O)COc3cccnc3-c3ccc4c(ccn4C)c3)CC2)c1 [Compound 378] | 1000 to 10000
Cn1ccc2cc(-c3ncccc3OCC(=O)N3CCC(CCc4ccc5c(c4)OCO5)CC3)ccc21 [Compound 379] | 1000 to 10000
Cn1ccc2cc(-c3ncccc3OCC(=O)N3CCC(CCc4cccc(OCCN5CCOCC5)c4)CC3)ccc21 [Compound 380] | 1000 to 10000
COc1cc(CCC2CCN(C(=O)COc3cccnc3-c3ccc(F)cc3O)CC2)ccc1OCCN1CCOCC1 [Compound 381] | 10000 to 50000
O=C(COc1ccccc1-c1ccc2[nH]cnc2c1)N1CCC(CCc2ccc3c(c2)OCO3)CC1 [Compound 382] | 1000 to 10000
O=C(COc1ccccc1-c1ccc2[nH]cnc2c1)N1CCC(CCc2ccc(O)cc2)CC1 [Compound 383] | 1000 to 10000
Cn1ccc2cc(-c3ccccc3OCC(=O)N3CCC(CCc4ccc5c(c4)OCO5)CC3)ccc21 [Compound 384] | 1000 to 10000
COc1cccc(CCC2CCN(C(=O)COc3ccc(S(N)(=O)=O)cc3-c3ccc(C#N)cc3)CC2)c1 [Compound 385] | 1000 to 10000
COc1cccc(CCC2CCN(C(=O)COc3ccc(S(N)(=O)=O)cc3-c3ccc(F)cc3O)CC2)c1 [Compound 386] | 1000 to 10000
COc1cccc(CCC2CCN(C(=O)COc3ccccc3-c3ccc4[nH]c(C)nc4c3)CC2)c1 [Compound 387] | 1000 to 10000
Cc1nc2cc(-c3ccccc3OCC(=O)N3CCC(CCc4ccc5c(c4)OCO5)CC3)ccc2[nH]1 [Compound 388] | < 1000
COc1cccc(CCC2CCN(C(=O)COc3ccc(S(=O)(=O)NC(C)C)cc3-c3ccc(F)cc3O)CC2)c1 [Compound 389] | 1000 to 10000
CC(C)NS(=O)(=O)c1ccc(OCC(=O)N2CCC(CCc3ccc4c(c3)OCO4)CC2)c(-c2ccc(F)cc2O)c1 [Compound 390] | 1000 to 10000
COc1ccc(CCC2CCN(C(=O)COc3ccccc3-c3ccc(F)cc3O)CC2)cc1OCCN1CCOCC1 [Compound 391] | 1000 to 10000
O=C(COc1ccccc1-c1ccc(F)cc1O)N1CCC(CCc2ccncc2)CC1 [Compound 392] | 1000 to 10000
O=C(COc1ccccc1-c1ccc(F)cc1O)N1CCC(CCc2cccnc2)CC1 [Compound 393] | 1000 to 10000
O=C(COc1cccnc1-c1ccc2[nH]ncc2c1)N1CCC(CCc2ccncc2)CC1 [Compound 396] | 1000 to 10000
O=C(COc1cccnc1-c1ccc(F)cc1O)N1CCC(CCc2ccncc2)CC1 [Compound 397] | 1000 to 10000
CC(C)Oc1cccc(CCC2CCN(C(=O)COc3ccccc3-c3ccc4[nH]cnc4c3)CC2)c1 [Compound 398] | < 1000
CC(C)Oc1cccc(CCC2CCN(C(=O)COc3ccc(C#N)cc3-c3ccc(F)cc3O)CC2)c1 [Compound 399] | < 1000
CC(C)Oc1cccc(CCC2CCN(C(=O)COc3ccccc3-c3ccc(F)cc3O)CC2)c1 [Compound 400] | < 1000
N#Cc1ccc(OCC(=O)N2CCC(CCc3cccc4ccccc34)CC2)c(-c2ccc(F)cc2O)c1 [Compound 401] | < 1000
O=C(COc1ccccc1-c1ccc2[nH]cnc2c1)N1CCC(CCc2cccc3ccccc23)CC1 [Compound 402] | < 1000
N#Cc1ccc(-c2ccccc2C2CC2C(=O)N2CCC(CCc3ccccc3)CC2)cc1 (stereo not shown) [Compound 404] | < 1000
O=C(C1CC1c1ccccc1-c1ccc(F)cc1O)N1CCC(CCc2ccccc2)CC1 (stereo not shown) [Compound 405] | < 1000

Compound | IC50 [nM]
N#Cc1ccc(-c2ccccc2OCC(=O)N2CCC(CCc3cccc(OC4CC4)c3)CC2)cc1 [Compound 406] | < 1000
N#Cc1ccc(OCC(=O)N2CCC(CCc3cccc(OC4CC4)c3)CC2)c(-c2ccc(F)cc2O)c1 [Compound 407] | < 1000
CC(C)Oc1cccc(CCC2CCN(C(=O)COc3cccnc3-c3ccc(F)cc3O)CC2)c1 [Compound 408] | < 1000
N#Cc1ccc(OCC(=O)N2CCC(CCc3cccc(OC4CCCC4)c3)CC2)c(-c2ccc(F)cc2O)c1 [Compound 409] | < 1000
O=C(COc1cccnc1-c1ccc(F)cc1O)N1CCC(CCc2cccc(OC3CCCC3)c2)CC1 [Compound 410] | < 1000
CC(C)Oc1cccc(CCC2CCN(C(=O)COc3cccnc3-c3ccc(C#N)cc3)CC2)c1 [Compound 411] | < 1000
C#CCOc1ccc(CCC2CCN(C(=O)COc3ccccc3-c3ccc(C(=O)c4ccccc4)cc3)CC2)cc1 [Compound 412] | 1000 to 10000
CC(C)Oc1cccc(CCC2CCN(C(=O)COc3ccc(C#N)cc3-c3ccccc3O)CC2)c1 [Compound 414] | < 1000
O=C(c1ccccc1)c1ccc(-c2ccccc2OCC(=O)N2CCC(CCc3cccc(O)c3)CC2)cc1 [Compound 415] | < 1000
C#CCOc1cccc(CCC2CCN(C(=O)COc3ccccc3-c3ccc(C(=O)c4ccccc4)cc3)CC2)c1 [Compound 416] | 1000 to 10000
N#Cc1ccc(OCC(=O)N2CCC(CCc3cccc(O)c3)CC2)c(-c2ccc(C(=O)c3ccccc3)cc2)c1 [Compound 417] | < 1000
C#CCOc1cccc(CCC2CCN(C(=O)COc3ccc(C#N)cc3-c3ccc(C(=O)c4ccccc4)cc3)CC2)c1 [Compound 418] | < 1000
C#CCOc1ccc(C(=O)c2ccc(-c3ccccc3OCC(=O)N3CCC(CCc4cccc(OC(C)C)c4)CC3)cc2)cc1 [Compound 419] | 1000 to 10000
N#Cc1ccc(-c2cc(C#N)ccc2OCC(=O)N2CCC(CCc3ccc4c(c3)OCO4)CC2)cc1 [Compound 420] | < 1000
CC(C)Oc1cccc(CCC2CCN(C(=O)COc3ccccc3-c3ccc(C(=O)c4ccc(O)cc4)cc3)CC2)c1 [Compound 421] | 1000 to 10000
Cc1ccc(-c2ccccc2OCC(=O)N2CCC(CCc3ccccc3)CC2)nn1 [Compound 422] | < 1000
O=C(COc1ccccc1-c1cnccn1)N1CCC(CCc2ccccc2)CC1 [Compound 423] | 1000 to 10000
Cc1cnc(-c2ccccc2OCC(=O)N2CCC(CCc3ccccc3)CC2)cn1 [Compound 424] | 1000 to 10000
Cc1cnc(C#CC2CCN(C(=O)COc3ccc(C#N)cc3-c3ccc(C#N)cc3)CC2)cn1 [Compound 425] | 1000 to 10000
Cc1cnc(CCC2CCN(C(=O)COc3ccc(C#N)cc3-c3ccc(C#N)cc3)CC2)cn1 [Compound 426] | 1000 to 10000
CC(C)Oc1ccccc1CCC1CCN(C(=O)COc2ccccc2-c2ccc(C#N)cc2)CC1 [Compound 427] | < 1000
Cc1ccc(C#CC2CCN(C(=O)COc3ccc(C#N)cc3-c3ccc(C#N)cc3)CC2)nn1 [Compound 428] | 1000 to 10000
N#Cc1ccc(-c2cc(C#N)ccc2OCC(=O)N2CCC(C#Cc3cnccn3)CC2)cc1 [Compound 429] | 1000 to 10000
